From patent US11466067B2 (priority 2019, dated 2022)

Columns and labels:
[1] = Salt screening for dimer stability (SE-HPLC); format: physicochemical; settings: buffer exchange, data not shown
Experimental: Formulations were prepared with the delivery construct at 20 g/Lin 10 mM Sodium Phosphate at pH 7.0 with the salts and salt concentrations as indicated in Table 53. The percentage of the IL-10 delivery construct present in dimer form, monomer form, and high molecular weight aggregates (HMW Agg) was assessed by size exclusion HPLC as indicated previously.

[2] = Single oral capsule dose in NHP: plasma caffeine by LC-MS/MS; format: in vivo, Macaca fascicularis
Experimental: In order to quantitate plasma caffeine levels, an LC-MS/MS detection system was employed. A 25-μL matrix aliquot was fortified with 25 μL of 2.00 μg/mL caffeine-trimethyl-^13C3 internal standard working solution. Analytes were isolated through supported liquid extraction (SLE). A portion of the eluate was transferred and evaporated under a nitrogen stream at approximately 45° C., and the remaining residue reconstituted with 500 μL of water/acetonitrile (95:5, v/v). The final extract was analyzed via HPLC with MS/MS detection using positive ion electrospray and reverse phase chromatography. Caffeine concentration was determined using similarly run calibration controls.
IL-10 delivery construct dosing at multiple fixed doses in non-naïve adult male Macaca fascicularis was conducted by Valley Biosystems (West Sacramento, Calif.). […] Dosing groups are described in TABLE 45.
Blood samples were collected in K2EDTA tubes from each animal pre-dose and at 0.5, 1, 2, 3, 4, 5, 6, 7, 8, and 24 hours post-dose. Animals were returned to home cages following the 2-hour sample collection. Following physical restraint, blood samples were collected via direct venous puncture using a cephalic, femoral or saphenous vein, which were processed to plasma and stored frozen at −60° C. until shipment.

[3] = Surfactant evaluation under shear stress (visual, turbidity, SEC-HPLC); format: physicochemical; settings: for SEC-HPLC forms of construct (HMW, dimer, monomer) with surfactant: 1×PBS, before/after vortexing
Experimental: Following vortexing, the solution was visually inspected. The sample without a surfactant was slightly hazy while the samples with the surfactant were clear after vortexing. The turbidity (340-360 nm) of the solution was assessed after vortexing.
SEC-HPLC was carried out on the IL-10 delivery construct formulations before (FIG. 93) and after (FIG. 94) vortexing (TABLE 48).

[4] = initial liquid formulation screen
STAT3, IL-1Ra = experiment: pSTAT3/STAT3 and systemic IL-1Ra in non-inflamed mice (ELISA MSD); format: in vivo
STAT3 phosphorylation = experiment: pSTAT3 and hIL-10 immunofluorescence in intestine 40 min post oral gavage; format: in vivo, rat
Experimental: This observation is consistent with findings in mice that intestinal epithelial cells can express IL-10 receptors at their apical surface under certain conditions associated with development and maintenance of barrier function. […] In order to quantify how test articles affected intestinal IL-10 signal transduction pathways, image analysis was performed: high-throughput image batches were collected, segmented by epithelial versus Lamina propria localization, and then by cellular features.

[5] = Intraluminal injection in T-cell transfer colitis model, rhIL-10 ELISA; format: in vivo, BALB/c and SCID mice; settings: 159 pmoles intraluminal
Experimental: This study was conducted to examine the potential for the carrier protein to transport rhIL-10 from the intestinal lumen into the submucosal region in inflamed intestinal tissue. The T lymphocyte (T cell) transfer model was used as it is a well-established model of induced chronic colitis in mice and presents many of the essential immunological hallmarks observed in IBD patients. Nine BALB/c mice and twelve SCID mice, including nine with the colitis-like model of inflammation, were dosed with 20 μl of test article via intraluminal injection into the distal ileum and the proximal, middle and distal colon.
PBS vehicle was administered to healthy BALB/c mice and both healthy and induced colitis SCID mice (n=3/group). In each group, two mice were terminated 10 minutes after intraluminal injections, and one was terminated 40 minutes after intraluminal injections. Intestinal tissue and serum were collected. Collected tissue was fixed, embedded, sectioned and H&E stained for histological assessment of inflammatory status. ELISA analysis to measure rhIL 10 was performed on lysates prepared from intestinal tissue and serum (FIGS. 106A-106D).

STAT3 = settings: 20 min stimulation
[6] = tested on: circulating cytokines, chemokines, growth factors; format: in vivo, mice; settings: mouse, in vivo
[7] = Dimer purity during compaction/granulation (SEC); format: physicochemical; settings: slugging/granulation formulation intermediates
Experimental: The compatibility of the IL-10 delivery construct was evaluated for the initial steps of tablet formation. Blending and compaction processes were conducted. Both roller compaction and slugging was conducted, with subsequent milling to granules in each case. In order to explore excipient functionality and compatibility, different excipients were included in the three formulations.
Roller compaction was conducted at 2 forces, and the resulting ribbons were individually granulated. Materials were reconstituted in PBS at 0.65 mg/mL SEQ ID NO: 5 and filtered with 0.2 um filter (Advantec) before SEC analysis. Samples were also incubated at 40° C. for two weeks before reconstitution and analysis.
The same analysis was conducted for the intermediates generated in the slugging/granulation process (TABLE 30). As well as the different compaction method, the slugging/granulation batch differed in binder and lubricant composition.

O=S(=O)([O-])[O-].[Na+].[Na+] [Na2SO4, sodium sulfate]
behaviour of construct at higher salt concentrations [1]: precipitate during buffer exchange

N.N.O=S(=O)(O)O [NH4SO4, ammonium sulfate]
behaviour of construct at higher salt concentrations [1]: precipitate during buffer exchange

Cn1c(=O)c2c(ncn2C)n(C)c1=O [caffeine]
plasma caffeine Tmax ([2]; all doses): 4 hours post dose
time at which absorption of caffeine was observable (capsule opening) ([2]; cynomolgus monkey, in vivo): 2-3 hours post dose

poloxamer 188
SEC-HPLC forms of construct (HMW, dimer, monomer) with surfactant [3]: seemed to stabilize the IL-10 delivery construct
aggregation of target construct under shear stress [4]: reduced aggregation

polysorbate 20
turbidity (340-360 nm) after vortexing ([3]; 0.1% in 1×PBS): increase in absorbance was also observed
SEC-HPLC forms of construct (HMW, dimer, monomer) with surfactant [3]: most amount of monomer before vortexing

rhIL-10: recombinant human IL-10 (SEQ ID NO: 2), commercial preparation used as comparator
increase in ratio of pSTAT3 to total STAT3 (STAT3, IL-1Ra; construct 1 mg/kg, rhIL-10 0.9 mg/kg (equimolar), non-inflamed colon tissue): did not significantly alter
increase of systemic IL-1Ra (STAT3, IL-1Ra; construct 10 mg/kg, rhIL-10 3 mg/kg (equimolar)): did not significantly increase
hIL-10 and pSTAT3 in intestinal tissue (STAT3 phosphorylation): pSTAT3 induction in enterocytes but not in cells within the Lamina propria
rhIL-10 in serum of inflamed animals [5]: minimal amounts
amplitude of pSTAT3/total STAT3 (STAT3): 2.19%

Nc1ccc(O)c(C(=O)O)c1 [5-ASA, 5-aminosalicylic acid, reference compound]
oxazolone-induced increase in plasma GCSF/CSF3 [6]: attenuated

polysorbate 80
SEC-HPLC forms of construct (HMW, dimer, monomer) with surfactant [3]: increase in HMW aggregates and monomers

B1: Drug Substance (DS) (protein)
chain: MVEEALNIFDECRSPCSLTPEPGKPIQSKLSIPSDVVLDEGVLYYSMTINDEQNDIKDEDKGESIITIGEFATVRATRHYVNQDAPFGVIHLDITTENGTKTYSYNRKEGEFAINWLVPIGEDSPASIKISVDELDQQRNIIEVPKLYSIDLDNQTLEQWKTQGNVSFSVTRPEHNIAISWPSVSYKAAQKEGSRHKRWAHWHTGLALCWLVPMDAIYNYITQQNCTLGDNWFGGSYETVAGTPKVITVKQGIEQKPVEQRIHFSKGNAMSALAAHRVCGVPLETLARSRKPRDLTDDLSCAYQAQNIVSLFVATRILFSHLDSVFTLNLDEQEPEVAERLSDLRRINENNPGMVTQVLTVARQIYNDYVTHHPGLTPEQTSAGAQAGGGGSGGGGSGGGGSPGQGTQSENSCTHFPGNLPNMLRDLRDAFSRVKTFFQMKDQLDNLLLKESLLEDFKGYLGCQALSEMIQFYLEEVMPQAENQDPDIKAHVNSLGENLKTLRLRLRRCHRFLPCENKSKAVEQVKNAFNKLQEKGIYKAMSEFDIFINYIEAYMTMKIRN
modifications: dimer
Purity (dimer purity) [7]: 81.2
